Read-outs that look alike come from different tables or passages of the source.

The values that follow come from paper PMC8773473, “Lithocholic Acid Amides as Potent Vitamin D Receptor Agonists” (Biomolecules, 2022).

One data set has as its target T1, VDR (Homo sapiens, UniProt P11473).
T1 construct: expressed in transfected cells; host or cells: HEK293
T1 sequence (P11473 1-427): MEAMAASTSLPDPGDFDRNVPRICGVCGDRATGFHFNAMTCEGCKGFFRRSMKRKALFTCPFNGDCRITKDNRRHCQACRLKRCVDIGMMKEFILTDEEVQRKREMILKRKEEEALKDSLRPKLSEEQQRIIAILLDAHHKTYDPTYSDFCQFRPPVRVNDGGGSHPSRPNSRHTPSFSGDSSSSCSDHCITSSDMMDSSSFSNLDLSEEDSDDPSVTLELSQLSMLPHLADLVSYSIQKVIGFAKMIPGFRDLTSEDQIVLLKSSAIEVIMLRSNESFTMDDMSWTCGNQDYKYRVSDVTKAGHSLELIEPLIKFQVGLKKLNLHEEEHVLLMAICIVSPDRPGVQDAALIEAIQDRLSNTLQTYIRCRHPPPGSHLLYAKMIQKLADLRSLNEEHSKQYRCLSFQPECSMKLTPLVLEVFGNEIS
As to the kind of experiment: VDR transactivation assay (luciferase reporter) in HEK293 cells. The class given is cell-based. The procedure: Human embryonic kidney HEK293 cells (RIKEN Cell Bank, Tsukuba, Japan) were cultured in Dulbecco’s modified Eagle’s medium containing 5% FBS, 100 U/mL penicillin, and 0.1 mg/mL streptomycin (Nacalai Tesque, Kyoto, Japan). Transfections used 15 ng of pCMX-hVDR, 50 ng of TK-Spp × 3-LUC reporter plasmid, and 10 ng of pCMX-β-galactosidase for each well of a 96-well plate, and were performed by the calcium phosphate coprecipitation assay as described previously. Eight hours after transfection, test compounds were added. Cells were harvested after 16–24 h and were assayed for luciferase and β-galactosidase activity using a luminometer and a microplate reader (Molecular Devices, Sunnyvale, CA, USA). Luciferase data were normalized to the internal β-galactosidase control. All experiments were done in triplicate.
Background: A reporter such as luciferase makes a cellular process visible.

The subject of a further data set is HL-60 cells. Description: HL-60 cell differentiation-inducing assay (NBT reduction). The class given is cell-based, human. Particulars: for EC50: Homo sapiens, HL-60, 96 h, read-out: HL-60 Assay EC50. Here is the method:
The vitamin D activity of the synthesized lithocholic acid amide derivatives was evaluated in terms of cell differentiation-inducing activity toward human acute promyelocytic leukemia cell line HL-60 [12]. HL-60 cell differentiation was evaluated in terms of the ratio of nitroblue tetrazolium (NBT)-positive cells (Figure 3 and Table 1).
Control cells were treated with the same volume of ethanol alone. 1α,25(OH)2D3 was always assayed at the same time as a positive control. The cells were incubated at 37 °C under 5% CO2 in air for 4 days. The percentage of differentiated cells was determined by nitro-blue tetrazolium (NBT) reduction assay. […] The percentage of cells containing blue-black formazan was determined in a minimum of 200 cells. All experiments were done in triplicate.

On the set-up of data set [1]: method as in PMID 33853023. Particulars: cited from earlier work.
Data set [2] in a line: preliminary pharmacokinetics in mice (data not shown). The class given is in vivo. Particulars: preliminary results.
For data set [3], the target named is T2, rat VDR LBD (residues 116–423, Δ165–211) (rat, UniProt P13053 116-423, Δ165–211).
T2 construct: Cloned in pET14b; tag removed by thrombin digestion; also called rVDR LBD; source: Escherichia coli C41, purified (Ni-NTA, SP-Sepharose, thrombin digestion, gel filtration); not shown: His6, N-terminal, cleaved
T2 sequence (looked up): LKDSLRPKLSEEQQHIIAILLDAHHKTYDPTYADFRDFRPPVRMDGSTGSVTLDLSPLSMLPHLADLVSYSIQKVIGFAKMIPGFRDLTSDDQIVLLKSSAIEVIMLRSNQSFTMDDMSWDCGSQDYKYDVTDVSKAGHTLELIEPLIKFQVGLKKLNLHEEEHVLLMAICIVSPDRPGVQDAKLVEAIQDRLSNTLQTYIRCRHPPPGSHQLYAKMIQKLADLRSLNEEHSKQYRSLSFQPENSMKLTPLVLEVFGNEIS
As to the kind of experiment: crystal structure; VDR LBD with about 10 equiv of ligand 7b and coactivator peptide (25 mM Tris-HCl, pH 8.0; 50 mM NaCl; 10 mM DTT; 0.02% NaN3); vapor diffusion, 0.2 M potassium citrate tribasic monohydrate, 20% (w/v) PEG3350, 20 °C; 1.94 Å. Particulars: both partners purified.

The mark [4] stands for this setting: HEK293 cells transfected with pCMX-hVDR and TK-Spp×3-LUC reporter, 'Inactive' = no or week active at the concentrations below 1 μM.
The mark [5] stands for this setting: ratio of NBT-positive cells, 4 days incubation, 'Inactive' = no or week active at the concentrations below 1 μM.

By EC50 is commonly meant the concentration giving half of the maximal effect. Regarding `C[C@H](CCC(N)=O)[C@H]1CC[C@H]2[C@@H]3CC[C@@H]4C[C@H](CC(C)(C)O)CC[C@]4(C)[C@H]3CC[C@]12C` [Compound 4a], the results for the EC50 at VDR (setting [4]) and in the data set with HL-60 cells (setting [5]) were 0.12 nM and 0.44 nM, respectively.

As for `CONC(=O)CC[C@@H](C)[C@H]1CC[C@H]2[C@@H]3CC[C@@H]4C[C@H](CC(C)(C)O)CC[C@]4(C)[C@H]3CC[C@]12C` [Compound 5b], the EC50 is 0.14 nM on VDR (setting [4]) and 1.45 nM in the data set on HL-60 cells (setting [5]).

For the molecule `C=C1/C(=C\C=C2/CCC[C@]3(C)[C@@H]([C@H](C)CCCC(C)(C)O)CC[C@@H]23)C[C@@H](O)C[C@@H]1O` [1α,25(OH)2D3 (1), 1α,25-Dihydroxyvitamin D3, reference compound], the EC50 in the data set on HL-60 cells is 0.74 nM.

With `C[C@H](CCC(=O)NCC(=O)O)[C@H]1CC[C@H]2[C@@H]3CC[C@@H]4C[C@H](CC(C)(C)O)CC[C@]4(C)[C@H]3CC[C@]12C` [Compound 7a], the EC50 with HL-60 cells (setting [5]) is 2.03 nM.

`C[C@H](CCC(=O)NC#N)[C@H]1CC[C@H]2[C@@H]3CC[C@@H]4C[C@H](CC(C)(C)O)CC[C@]4(C)[C@H]3CC[C@]12C` [Compound 6]: the results for the EC50 on VDR (setting [4]) and in the data set on HL-60 cells (setting [5]) were 0.1 nM and 0.32 nM, respectively.

For the molecule `C[C@H](CCC(=O)O)[C@H]1CC[C@H]2[C@@H]3CC[C@@H]4C[C@H](O)CC[C@]4(C)[C@H]3CC[C@]12C` [LCA (2), Lithocholic acid], at VDR (setting [4]), the “Transactivation Assay EC50” value is reported as “Inactive ^a”. Moreover, the “VDR transactivation activity (in words)” value at VDR (HEK293 cells, LCA: at the concentration below 1 μM) is recorded as “did not show the activity”. Besides, the “HL-60 Assay EC50” value in the data set with HL-60 cells (setting [5]) is reported as “Inactive ^a”.

The molecule `CNC(=O)CC[C@@H](C)[C@H]1CC[C@H]2[C@@H]3CC[C@@H]4C[C@H](CC(C)(C)O)CC[C@]4(C)[C@H]3CC[C@]12C` [Compound 4b] registered an EC50 on VDR (setting [4]) of 0.96 nM. In addition, the “HL-60 Assay EC50” value in the data set with HL-60 cells (setting [5]) was “Inactive ^a”.

As for `C[C@H](CCC(=O)NCCCC(=O)O)[C@H]1CC[C@H]2[C@@H]3CC[C@@H]4C[C@H](CC(C)(C)O)CC[C@]4(C)[C@H]3CC[C@]12C` [Compound 7c], the EC50 on VDR (setting [4]) worked out at 0.081 nM; with HL-60 cells (setting [5]), 0.64 nM.

Regarding `C[C@H](CCC(=O)NCS(=O)(=O)O)[C@H]1CC[C@H]2[C@@H]3CC[C@@H]4C[C@H](CC(C)(C)O)CC[C@]4(C)[C@H]3CC[C@]12C` [Compound 8a], the EC50 in the data set with HL-60 cells (setting [5]) was 18.5 nM.

For `C[C@H](CCC(=O)NCCS(=O)(=O)O)[C@H]1CC[C@H]2[C@@H]3CC[C@@H]4C[C@H](CC(C)(C)O)CC[C@]4(C)[C@H]3CC[C@]12C` [Compound 8b], in the data set on HL-60 cells (setting [5]), the EC50 was determined as 6.56 nM.

Take `C[C@H](CCC(=O)NCCC(=O)O)[C@H]1CC[C@H]2[C@@H]3CC[C@@H]4C[C@H](CC(C)(C)O)CC[C@]4(C)[C@H]3CC[C@]12C` [Compound 7b]: the EC50 at VDR (setting [4]) is 0.89 nM; in the data set with HL-60 cells (setting [5]) it was 0.45 nM.

In the case of `C[C@H](CCC(=O)O)[C@H]1CC[C@H]2[C@@H]3CC[C@@H]4C[C@H](CC(C)(C)O)CC[C@]4(C)[C@H]3CC[C@]12C` [Compound 3], the “calcemic activity compared with 1α,25(OH)2D3 (1)” value in data set [1] is “lower calcemic activity than 1”; in data set [1] (listed as 3 (Dcha-20)), “lower calcemic activity”. Besides, the EC50 on VDR (setting [4]) stood at 0.083 nM; with HL-60 cells (setting [5]) it was 1.01 nM. Also, in data set [2], the “elimination from the serum” value is listed as “eliminated very quickly”.

`C[C@H](CCC(=O)NO)[C@H]1CC[C@H]2[C@@H]3CC[C@@H]4C[C@H](CC(C)(C)O)CC[C@]4(C)[C@H]3CC[C@]12C` [Compound 5a]: the EC50 at VDR (setting [4]) was determined as 0.14 nM; with HL-60 cells (setting [5]) it was 1.18 nM.

B1: coactivator peptide (H2N-KNHPMLMNLLKDN-CONH2) derived from DRIP205 (peptide)
peptide: H-KNHPMLMNLLKDN-NH2
notes: also called MED1 peptide; source: synthetic peptide
Take B1: the binding result in data set [3] is on record as “binds”.
